Test results published in patent US11154060B2, “Microbiocidal oxadiazole derivatives” (SYNGENTA PARTICIPATIONS AG, priority 2016, dated 2021).

Assays:
Phakopsora pachyrhizi = Phakopsora pachyrhizi / soybean / leaf disc preventative (Asian soybean rust); format: in vivo; details: foliar, soybean leaf disks, inoculated one day after application, assessed 12-14 days after application, read-out: control of Phakopsora pachyrhizi compared to untreated control
Protocol: Leaf disks or leaf segments of various plant species are cut from plants grown in a greenhouse. The cut leaf disks or segments are placed in multiwell plates (24-well format) onto water agar. The leaf disks are sprayed with a test solution before (preventative) or after (curative) inoculation. Compounds to be tested are prepared as DMSO solutions (max. 10 mg/ml) which are diluted to the appropriate concentration with 0.025% Tween20 just before spraying. The inoculated leaf disks or segments are incubated under defined conditions (temperature, relative humidity, light, etc.) according to the respective test system. A single evaluation of disease level is carried out 3 to 14 days after inoculation, depending on the pathosystem. Percent disease control relative to the untreated check leaf disks or segments is then calculated. Soybean leaf disks are placed on water agar in multiwell plates (24-well format) and sprayed with the formulated test compound diluted in water. One day after application leaf discs are inoculated by spraying a spore suspension on the lower leaf surface. After an incubation period in a climate cabinet of 24-36 hours in darkness at 20° C. and 75% rh leaf disc are kept at 20° C. with 12 h light/12 h darkness and 75% rh. The activity of a compound is assessed as percent disease control compared to untreated when an appropriate level of disease damage appears in untreated check leaf disks (12-14 days after application).

Uromyces viciae-fabae = Uromyces viciae-fabae / field bean / leaf disc preventative (faba-bean rust); format: in vivo; details: foliar, 288 h, 100 ppm in the applied formulation, field bean leaf discs, inoculated two hours after application, 12 days after application, read-out: disease control compared to untreated control leaf discs
Protocol: Leaf disks or leaf segments of various plant species are cut from plants grown in a greenhouse. The cut leaf disks or segments are placed in multiwell plates (24-well format) onto water agar. The leaf disks are sprayed with a test solution before (preventative) or after (curative) inoculation. Compounds to be tested are prepared as DMSO solutions (max. 10 mg/ml) which are diluted to the appropriate concentration with 0.025% Tween20 just before spraying. The inoculated leaf disks or segments are incubated under defined conditions (temperature, relative humidity, light, etc.) according to the respective test system. A single evaluation of disease level is carried out 3 to 14 days after inoculation, depending on the pathosystem. Percent disease control relative to the untreated check leaf disks or segments is then calculated. Field bean leaf discs are placed on water agar in multiwell plates (96-well format) and 10 μl of the formulated test compound diluted in acetone and a spreader pipetted onto the leaf disc. Two hours after application leaf discs are inoculated by spraying a spore suspension on the lower leaf surface. The leaf discs are incubated in a climate cabinet at 22° C. with 18 hour day and 70% relative humidity. The activity of a compound is assessed as percent disease control compared to untreated when an appropriate level of disease damage appears in untreated check leaf disks (12 days after application).

[1] = tested on: Puccinia recondita f. sp. tritici; assay: Puccinia recondita f. sp. tritici / wheat / leaf disc preventative (brown rust); format: in vivo; details: foliar, wheat leaf segments cv. Kanzler, inoculated 1 day after application, assessed 7-9 days after application, read-out: control of Puccinia recondita f. sp. tritici compared to untreated control
Protocol: Leaf disks or leaf segments of various plant species are cut from plants grown in a greenhouse. The cut leaf disks or segments are placed in multiwell plates (24-well format) onto water agar. The leaf disks are sprayed with a test solution before (preventative) or after (curative) inoculation. Compounds to be tested are prepared as DMSO solutions (max. 10 mg/ml) which are diluted to the appropriate concentration with 0.025% Tween20 just before spraying. The inoculated leaf disks or segments are incubated under defined conditions (temperature, relative humidity, light, etc.) according to the respective test system. A single evaluation of disease level is carried out 3 to 14 days after inoculation, depending on the pathosystem. Percent disease control relative to the untreated check leaf disks or segments is then calculated. Wheat leaf segments cv. Kanzler are placed on agar in multiwell plates (24-well format) and sprayed with the formulated test compound diluted in water. The leaf disks are inoculated with a spore suspension of the fungus 1 day after application. The inoculated leaf segments are incubated at 19° C. and 75% rh under a light regime of 12 h light/12 h darkness in a climate cabinet and the activity of a compound is assessed as percent disease control compared to untreated when an appropriate level of disease damage appears in untreated check leaf segments (7-9 days after application).

[2] = tested on: Puccinia recondita f. sp. tritici; assay: Puccinia recondita f. sp. tritici / wheat / leaf disc curative (brown rust); format: in vivo; details: foliar, wheat leaf segments cv. Kanzler, applied 1 day after inoculation, assessed 6-8 days after application, read-out: control of Puccinia recondita f. sp. tritici compared to untreated control
Protocol: Leaf disks or leaf segments of various plant species are cut from plants grown in a greenhouse. The cut leaf disks or segments are placed in multiwell plates (24-well format) onto water agar. The leaf disks are sprayed with a test solution before (preventative) or after (curative) inoculation. Compounds to be tested are prepared as DMSO solutions (max. 10 mg/ml) which are diluted to the appropriate concentration with 0.025% Tween20 just before spraying. The inoculated leaf disks or segments are incubated under defined conditions (temperature, relative humidity, light, etc.) according to the respective test system. A single evaluation of disease level is carried out 3 to 14 days after inoculation, depending on the pathosystem. Percent disease control relative to the untreated check leaf disks or segments is then calculated. Wheat leaf segments cv. Kanzler are placed on agar in multiwell plates (24-well format). The leaf segments are inoculated with a spore suspension of the fungus. Plates are stored in darkness at 19° C. and 75% rh. The formulated test compound diluted in water is applied 1 day after inoculation. The leaf segments are incubated at 19° C. and 75% rh under a light regime of 12 h light/12 h darkness in a climate cabinet and the activity of a compound is assessed as percent disease control compared to untreated when an appropriate level of disease damage appears in untreated check leaf segments (6-8 days after application).

[3] = tested on: Glomerella lagenarium (Colletotrichum lagenarium); assay: Glomerella lagenarium (Colletotrichum lagenarium) liquid culture / cucumber / preventative (anthracnose); format: cell-based; details: Colletotrichum orbiculare, liquid culture in PDB, 24° C., 3-4 days after application, read-out: control of Glomerella lagenarium compared to untreated control (inhibition of growth, photometric)
Protocol: Mycelia fragments or conidia suspensions of a fungus prepared either freshly from liquid cultures of the fungus or from cryogenic storage, are directly mixed into nutrient broth. DMSO solutions of the test compound (max. 10 mg/ml) are diluted with 0.025% Tween20 by a factor of 50 and 10 μl of this solution is pipetted into a microtiter plate (96-well format). The nutrient broth containing the fungal spores/mycelia fragments is then added to give an end concentration of the tested compound. The test plates are incubated in the dark at 24° C. and 96% relative humidity. The inhibition of fungal growth is determined photometrically after 2 to 7 days, depending on the pathosystem, and percent antifungal activity relative to the untreated check is calculated. Conidia of the fungus from cryogenic storage are directly mixed into nutrient broth (PDB potato dextrose broth). After placing a (DMSO) solution of test compound into a microtiter plate (96-well format), the nutrient broth containing the fungal spores is added. The test plates are incubated at 24° C. and the inhibition of growth is measured photometrically 3-4 days after application.

| SMILES | pest or weed control at 200 ppm (Phakopsora pachyrhizi) | pest or weed control at 100 ppm (Uromyces viciae-fabae) | pest or weed control at 200 ppm [1] | pest or weed control at 200 ppm [2] | inhibition at 20 ppm [3] |
| --- | --- | --- | --- | --- | --- |
| CON(C)C(=O)c1ccc(-c2noc(C(F)(F)F)n2)cc1F [Compound 1.2, 2-fluoro-N-methoxy-N-methyl-4-[5-(trifluoromethyl)-1,2,4-oxadiazol-3-yl]benzamide] | ≥ 80% | ≥ 80% | ≥ 80% | ≥ 80% | – |
| CON(Cc1c(Cl)cc(Cl)cc1Cl)C(=O)c1ccc(-c2noc(C(F)(F)F)n2)cc1F [Compound 1.3, 2-fluoro-N-methoxy-N-[(2,4,6-trichlorophenyl)methyl]-4-[5-(trifluoromethyl)-1,2,4-oxadiazol-3-yl]benzamide] | – | ≥ 80% | – | – | – |
| CON(C(=O)c1ccc(-c2noc(C(F)(F)F)n2)cc1F)C(C)COC1CCCCO1 (stereo not shown) [Compound 1.9, 2-fluoro-N-methoxy-N-(1-methyl-2-tetrahydropyran-2-yloxy-ethyl)-4-[5-(trifluoromethyl)-1,2,4-oxadiazol-3-yl]benzamide] | – | ≥ 80% | – | – | ≥ 80% |
| CON(C(=O)c1ccc(-c2noc(C(F)(F)F)n2)cc1F)C(C)CO (stereo not shown) [Compound 1.12, 2-fluoro-N-(2-hydroxy-1-methyl-ethyl)-N-methoxy-4-[5-(trifluoromethyl)-1,2,4-oxadiazol-3-yl]benzamide] | – | ≥ 80% | – | ≥ 80% | ≥ 80% |
| CON(C)C(=O)Cc1ccc(-c2noc(C(F)(F)F)n2)c(F)c1 [Compound 1.18, 2-[3-fluoro-4-[5-(trifluoromethyl)-1,2,4-oxadiazol-3-yl]phenyl]-N-methoxy-N-methyl-acetamide] | ≥ 80% | – | ≥ 80% | ≥ 80% | ≥ 80% |
| CON(C(=O)Cc1ccc(-c2noc(C(F)(F)F)n2)c(F)c1)C(C)c1ccccc1 (stereo not shown) [Compound 1.24, 2-[3-fluoro-4-[5-(trifluoromethyl)-1,2,4-oxadiazol-3-yl]phenyl]-N-methoxy-N-(1-phenylethyl)acetamide] | – | – | ≥ 80% | – | ≥ 80% |
| CON(C(=O)Cc1ccc(-c2noc(C(F)(F)F)n2)c(F)c1)C(C)C1CC1 (stereo not shown) [Compound 1.25, N-(1-cyclopropylethyl)-2-[3-fluoro-4-[5-(trifluoromethyl)-1,2,4-oxadiazol-3-yl]phenyl]-N-methoxy-acetamide] | – | – | – | ≥ 80% | ≥ 80% |
| COC(=O)C1(N(O)C(=O)c2ccc(-c3noc(C(F)(F)F)n3)cc2)CCN(OC)CC1 [Compound 2.1, methyl 4-[hydroxy-[4-[5-(trifluoromethyl)-1,2,4-oxadiazol-3-yl]benzoyl]amino]-1-methoxy-piperidine-4-carboxylate] | ≥ 80% | ≥ 80% | ≥ 80% | – | ≥ 80% |
| COC(=O)[C@H](C)N(OC)C(=O)c1ccc(-c2noc(C(F)(F)F)n2)cc1 [Compound 2.3, methyl (2S)-2-[methoxy-[4-[5-(trifluoromethyl)-1,2,4-oxadiazol-3-yl]benzoyl]amino]propanoate] | – | ≥ 80% | – | ≥ 80% | ≥ 80% |
| COC(=O)C(C)N(OC)C(=O)c1ccc(-c2noc(C(F)(F)F)n2)cc1 (stereo not shown) [Compound 2.9, methyl 2-[methoxy-[4-[5-(trifluoromethyl)-1,2,4-oxadiazol-3-yl]benzoyl]amino]propanoate] | – | ≥ 80% | – | ≥ 80% | ≥ 80% |
| CON(C(=O)Cc1ccc(-c2noc(C(F)(F)F)n2)cc1)C1COC1 [Compound 2.19, N-methoxy-N-(oxetan-3-yl)-2-[4-[5-(trifluoromethyl)-1,2,4-oxadiazol-3-yl]phenyl]acetamide] | – | – | ≥ 80% | ≥ 80% | ≥ 80% |
| CON(C(=O)Cc1ccc(-c2noc(C(F)(F)F)n2)cc1)C(C)c1ccccc1 (stereo not shown) [Compound 2.20, N-methoxy-N-(1-phenylethyl)-2-[4-[5-(trifluoromethyl)-1,2,4-oxadiazol-3-yl]phenyl]acetamide] | – | – | – | – | ≥ 80% |
| CON(C(=O)Cc1ccc(-c2noc(C(F)(F)F)n2)cc1)C(C)C1CC1 (stereo not shown) [Compound 2.21, N-(1-cyclopropylethyl)-N-methoxy-2-[4-[5-(trifluoromethyl)-1,2,4-oxadiazol-3-yl]phenyl]acetamide] | – | – | – | – | ≥ 80% |
| CON(CC1CC1)C(=O)Cc1ccc(-c2noc(C(F)(F)F)n2)cc1 [Compound 2.22, N-(cyclopropylmethyl)-N-methoxy-2-[4-[5-(trifluoromethyl)-1,2,4-oxadiazol-3-yl]phenyl]acetamide] | ≥ 80% | – | – | ≥ 80% | ≥ 80% |
| CON(CC1CC1C1CC1)C(=O)Cc1ccc(-c2noc(C(F)(F)F)n2)cc1 (stereo not shown) [Compound 2.25, N-[(2-cyclopropylcyclopropyl)methyl]-N-methoxy-2-[4-[5-(trifluoromethyl)-1,2,4-oxadiazol-3-yl]phenyl]acetamide] | – | – | – | – | ≥ 80% |
| O=C(Cc1ccc(-c2noc(C(F)(F)F)n2)cc1)N(O)CC1CC1C1CC1 (stereo not shown) [Compound 2.26, N-[(2-cyclopropylcyclopropyl)methyl]-N-hydroxy-2-[4-[5-(trifluoromethyl)-1,2,4-oxadiazol-3-yl]phenyl]acetamide] | – | – | ≥ 80% | ≥ 80% | ≥ 80% |
